Assay results reported in US20110269790A1, “NOVEL THIENOPYRIDINES AS PHARMACOLOGICALLY ACTIVE AGENTS” (priority 2009, published 2011).
Several values for one entry are separate records, joined by “and”; a condition that tells them apart may be missing. Equal entries are not always repeated.

System: nitric oxide
Experiment: Nitric oxide inhibition assay, sodium nitroprusside method
Details: Griess reagent, vs control

Q: With Nc1c2c(nc3sc4c(c13)CCC4)CCCC2 [BN-14, 2,3,6,7,8,9-Hexahydro-1H-cyclopenta[4,5]thieno[2,3-b]quinolin-10-amine] as the compound, how does the “NO release in Sodium Nitroprusside method” value read?
A: significantly inhibited

Q: For Nc1c2c(nc3sc4c(c13)CCC4)CCCCC2 [BN-16, 1,2,3,6,7,8,9,10-Octahydrocyclohepta[b]cyclopenta[4,5]thieno[3,2-e]pyridine-11-amine], which “NO release in Sodium Nitroprusside method” value is on record?
A: significantly inhibited

System: not listed separately
Experiment: Acute oral toxicity, main study in rats
Details: both sexes, Albino Wistar, rat, in vivo, single oral dose, read-out: Maximum tolerated dose
Protocol: (§1) In the preliminary sighting study, the effect of various dosed administered to single animals of each sex was investigated in a sequential manner. The sighting study generally yields information on the dose-toxicity relationship including an estimate of the minimum lethal dose. In the main study, the test article is administered to groups of 5 males and 5 female animals at one of the fixed doses (5, 50, 500 and 2000 mg/Kg). The dose is derived from the sighting study. It is immediately below that which is expected to result in mortality. If evident toxicity is not seen at the chosen dose level, the substance should be retested at the next higher dose level. If at the initial dose level, animals die, or a severe toxicity reaction requires removal of animals from the study for animal welfare reasons, the substance is retested at the next lower dose level. Consideration of data from the both sighting study and the main study enabled a judgment to be made on determination of maximum tolerated dose.
(§2) At least 10 animals (5 males and 5 females) for each species were used for dose level in this study. Animals were fasted overnight and test articles were administered as 1% gum acacia suspension orally. The dose used in this study is selected from one of four levels 5 mg/kg, 50 mg/kg, 500 mg/kg and 2000 mg/kg i.e. the dose that produced evident toxicity but not mortality in sighting study. […] Different biochemical and hematology parameters observed on “0’ day and on termination day .During main study physical parameters like feed consumption and body weight increase were also recorded. 5 males and females were taken, and toxicity study conducted for the compounds. […] Hematology and biochemical parameters were well and within normal range when compared with 0 day in rats and mice. Based on above observations synthetic compounds were safe upto 2000 mg/kg.

Q: Which MTD at 14 days does the source give for Nc1c2c(nc3sc4c(c13)CCC4)CCCC2 [BN-14, 2,3,6,7,8,9-Hexahydro-1H-cyclopenta[4,5]thieno[2,3-b]quinolin-10-amine] here?
A: 1060 mg/kg

Q: Which MTD at 14 days does the source give for Nc1c2c(nc3sc4c(c13)CCC4)CCCCC2 [BN-16, 1,2,3,6,7,8,9,10-Octahydrocyclohepta[b]cyclopenta[4,5]thieno[3,2-e]pyridine-11-amine] here?
A: > 2000 mg/kg

System: not listed separately
Experiment: Acute oral toxicity, main study in mice
Details: both sexes, mouse, in vivo, single oral dose, read-out: Maximum tolerated dose
Protocol: as §1, §2

Q: Which MTD at 14 days does the source give for Nc1c2c(nc3sc4c(c13)CCC4)CCCC2 [BN-14, 2,3,6,7,8,9-Hexahydro-1H-cyclopenta[4,5]thieno[2,3-b]quinolin-10-amine] here?
A: 1250 mg/kg

Q: Which MTD at 14 days does the source give for Nc1c2c(nc3sc4c(c13)CCC4)CCCCC2 [BN-16, 1,2,3,6,7,8,9,10-Octahydrocyclohepta[b]cyclopenta[4,5]thieno[3,2-e]pyridine-11-amine] here?
A: > 2000 mg/kg

System: Wistar rats
Experiment: Arachidonic acid induced paw edema
Format: in vivo, rat
Details: 50 mg/kg, one hour after Arachidonic acid
Protocol: Paw edema was produced in rats by Arachidonic acid following the method of Dimartino et al. (1987) and Laura segura et al., 1998. wistar rats weighing between 130-150 g were divided in to groups of six animals (n=6).A volume of 0.1 ml of 0.5% Arachidonic acid in 0.2M Carbonate buffer was injected in to the plantar side of the right hind paw of the rat. Paw volumes were measured using plethysmometer before and after one hour Arachidonic acid injection. Results obtained were compared with those obtained from the control group, which received vehicle only.

Q: With Nc1c2c(nc3sc4c(c13)CCC4)CCCC2 [BN-14, 2,3,6,7,8,9-Hexahydro-1H-cyclopenta[4,5]thieno[2,3-b]quinolin-10-amine] as the compound, how does the “% Inhibition” value read?
A: 24.21 ± 3.89%

Q: What about the “Percentage Swelling (50 mg/kg)” value of the same compound?
A: 50.56 ± 3.12 %

Q: With Nc1c2c(nc3sc4c(c13)CCC4)CCCCC2 [BN-16, 1,2,3,6,7,8,9,10-Octahydrocyclohepta[b]cyclopenta[4,5]thieno[3,2-e]pyridine-11-amine] as the compound, how does the “% Inhibition” value read?
A: 21.72 ± 2.80%

Q: What about the “Percentage Swelling (50 mg/kg)” value of the same compound?
A: 52.32 ± 2.37 %

Same assay, conditions: 100 mg/kg, one hour after Arachidonic acid

Q: Which results are given for Nc1c2c(nc3sc4c(c13)CCC4)CCCC2 [BN-14, 2,3,6,7,8,9-Hexahydro-1H-cyclopenta[4,5]thieno[2,3-b]quinolin-10-amine]?
A: % Inhibition: 33.6 ± 3.11%; Percentage Swelling (100 mg/kg): 45.64 ± 2.0 %

Q: What does the source list for Nc1c2c(nc3sc4c(c13)CCC4)CCCCC2 [BN-16, 1,2,3,6,7,8,9,10-Octahydrocyclohepta[b]cyclopenta[4,5]thieno[3,2-e]pyridine-11-amine]?
A: % Inhibition: 34.10 ± 2.82%; Percentage Swelling (100 mg/kg): 44.95 ± 2.0 %

Same assay, conditions: 200 mg/kg, one hour after Arachidonic acid

Q: Which results are given for Nc1c2c(nc3sc4c(c13)CCC4)CCCC2 [BN-14, 2,3,6,7,8,9-Hexahydro-1H-cyclopenta[4,5]thieno[2,3-b]quinolin-10-amine]?
A: % Inhibition: 41.37% and 41.37 ± 2.40%; Percentage Swelling (200 mg/kg): 38.70 ± 1.60 %

Q: Which “% Inhibition” value does the source give for Nc1c2c(nc3sc4c(c13)CCC4)CCCCC2 [BN-16, 1,2,3,6,7,8,9,10-Octahydrocyclohepta[b]cyclopenta[4,5]thieno[3,2-e]pyridine-11-amine] here?
A: 45.63% and 45.63 ± 2.87%

Q: What about the “Percentage Swelling (200 mg/kg)” value of the same compound?
A: 36.30 ± 1.80 %

System: rats
Experiment: Acute oral toxicity, sighting study in rats
Format: in vivo, rat
Details: doses 2000 and 1250 mg/kg in rats
Protocol: In the series of thioenopyridine derivatives compounds BN-4, BN-14 and BN-16 show good antiinflammatory potential in all models tested. […] Acute Oral Toxicity Study was conducted following OECD guidelines by fixed dose method adopted by OECD (420). The study involved preliminary sighting using small number of animals in order to derive the dose effect relation for toxicity and mortality and to provide information on dose selection for the main study.
as §1
Sighting Study: Animals were fasted overnight. Following period of fasting, the animals were weighed and were administered the test articles by oral route. After the test substance was administered food was withheld for further 3 to 4 hrs. In the sighting study, the effect of various doses was investigated in single animals of each sex. Dosing was sequential allowing at least 24 hrs before dosing the next animal. All animals were carefully observed for signs and symptoms of toxicity continuously up to 24 hrs and later up to 7 days. […] In this sighting study, the dose that produced evident toxicity but not death was identified. […]

Q: Which “Toxicity, sighting study” value does the source give for Nc1c2c(nc3sc4c(c13)CCC4)CCCC2 [BN-14, 2,3,6,7,8,9-Hexahydro-1H-cyclopenta[4,5]thieno[2,3-b]quinolin-10-amine] here?
A: toxic

Same assay, conditions: single oral doses 5, 50, 500, and 2000 mg/kg, observed 14 days

Q: For Nc1c2c(nc3sc4c(c13)CCC4)CCCCC2 [BN-16, 1,2,3,6,7,8,9,10-Octahydrocyclohepta[b]cyclopenta[4,5]thieno[3,2-e]pyridine-11-amine], which “Toxic symptoms and mortality, sighting study” value is on record?
A: do not show any toxic symptoms and mortality

System: Wistar rats
Experiment: Freund's complete adjuvant (FCA) induced arthritis
Format: in vivo, rat
Details: 17th day and 21st day, 100 mg/kg, vs arthritic control

Q: With Nc1c2c(nc3sc4c(c13)CCC4)CCCC2 [BN-14, 2,3,6,7,8,9-Hexahydro-1H-cyclopenta[4,5]thieno[2,3-b]quinolin-10-amine] as the compound, how does the Arthritic scoring read?
A: significantly reduced

Q: For Nc1c2c(nc3sc4c(c13)CCC4)CCCCC2 [BN-16, 1,2,3,6,7,8,9,10-Octahydrocyclohepta[b]cyclopenta[4,5]thieno[3,2-e]pyridine-11-amine], which Arthritic scoring is on record?
A: significantly reduced

System: rats
Experiment: Collagen induced arthritis
Format: in vivo, rat
Details: collagen induced study; BN compounds 100 mg/kg, Indomethacin 2.5 mg/kg
Description: Group I—Normal Control; Group II—Arthritic control; Group III—Arthritic rats administered with Synthetic compound BN-4; Group IV—arthritic rats administered with compound BN-14; Group V—arthritic rats administered with BN-16; Group VI—arthritic rats administered with standard drug indomethacin. […] The test and indomethacin doses continued up to 21 days in FCA induced model and 24 days in collagen induced model. […] Before sacrificing the animals, blood was collected and used for estimation of total leukocyte count, TNF-α and IL-1β. […] In collagen induced study the total WBC count was analyzed by using cell counter and count as follows; […]

Q: With Nc1c2c(nc3sc4c(c13)CCC4)CCCC2 [BN-14, 2,3,6,7,8,9-Hexahydro-1H-cyclopenta[4,5]thieno[2,3-b]quinolin-10-amine] as the compound, how does the “Total WBC count” value read?
A: 14.88±2.64

Q: Which “Total WBC count” value does the source give for Nc1c2c(nc3sc4c(c13)CCC4)CCCCC2 [BN-16, 1,2,3,6,7,8,9,10-Octahydrocyclohepta[b]cyclopenta[4,5]thieno[3,2-e]pyridine-11-amine] here?
A: 15.70±1.28

System: Wistar rats
Experiment: Antidiabetic activity by starch loaded model
Format: in vivo, rat
Details: 30 min after starch; test compounds 100 mg/kg, Acarbose 10 mg/kg oral
Description: Experimental Animals—Wistar rats of either sex were used for the present study. Animals selected for use in the study were of uniform age and body weight. A minimum of 40 rats, from which eventually 20 rats were selected. Their body weights were in the range of 150-180 gm. The health status of the animals was ascertained by a veterinary surgeon. […] Animals were acclimatized for at least two weeks prior to start of the study. The animals were provided with pellet diet manufactured by NIN, HYDERABAD, India and drinking water adlibitum.
Compound Preparation The required quantity of the synthetic compounds were weighed and made suspension with gum acacia (2%). The test compounds were administered to all rats by per oral route. Acarbose suspension was also prepared in gum acasia suspension and given by oral route.
Antidiabetic activity by Starch model: The method of Rao et al., 2009;Tiwari et al was employed. Animals were fasted over night (12 hrs). Basal blood glucose levels were estimated for all the animals prior to dosing in test and standard groups. This was designated as “0” min reading. […] After test compounds administration animals in all three groups received Starch aqueous solution (2 gm/kg body weight). Blood glucose levels were monitored at 30, 60, 90 and 120 min after the administration of Starch in all the three groups. The percentage of increase in, blood glucose levels was calculated with respect to the control group at each time point.

Q: For Nc1c2c(nc3sc4c(c13)CCC4)CCCC2 [BN-14, 2,3,6,7,8,9-Hexahydro-1H-cyclopenta[4,5]thieno[2,3-b]quinolin-10-amine], which “% Increase in glucose, 30 min” value is on record?
A: 37.65%

Same assay, conditions: 30 min after starch; test compounds 100 mg/kg, Acarbose 10 mg/kg oral; in mg/dL (unit assumed)

Q: Which “Blood glucose level, 30 min” value does the source give for Nc1c2c(nc3sc4c(c13)CCC4)CCCC2 [BN-14, 2,3,6,7,8,9-Hexahydro-1H-cyclopenta[4,5]thieno[2,3-b]quinolin-10-amine] here?
A: 103.83

Same assay, conditions: 60 min after starch; test compounds 100 mg/kg, Acarbose 10 mg/kg oral

Q: For Nc1c2c(nc3sc4c(c13)CCC4)CCCC2 [BN-14, 2,3,6,7,8,9-Hexahydro-1H-cyclopenta[4,5]thieno[2,3-b]quinolin-10-amine], which “% Increase in glucose, 60 min” value is on record?
A: 36.02%

Same assay, conditions: 60 min after starch; test compounds 100 mg/kg, Acarbose 10 mg/kg oral; in mg/dL (unit assumed)

Q: For Nc1c2c(nc3sc4c(c13)CCC4)CCCC2 [BN-14, 2,3,6,7,8,9-Hexahydro-1H-cyclopenta[4,5]thieno[2,3-b]quinolin-10-amine], which “Blood glucose level, 60 min” value is on record?
A: 102.80

Same assay, conditions: 90 min after starch; test compounds 100 mg/kg, Acarbose 10 mg/kg oral

Q: For Nc1c2c(nc3sc4c(c13)CCC4)CCCC2 [BN-14, 2,3,6,7,8,9-Hexahydro-1H-cyclopenta[4,5]thieno[2,3-b]quinolin-10-amine], which “% Increase in glucose, 90 min” value is on record?
A: 45.00%

Same assay, conditions: 90 min after starch; test compounds 100 mg/kg, Acarbose 10 mg/kg oral; in mg/dL (unit assumed)

Q: For Nc1c2c(nc3sc4c(c13)CCC4)CCCC2 [BN-14, 2,3,6,7,8,9-Hexahydro-1H-cyclopenta[4,5]thieno[2,3-b]quinolin-10-amine], which “Blood glucose level, 90 min” value is on record?
A: 109.33

Same assay, conditions: 120 min after starch; test compounds 100 mg/kg, Acarbose 10 mg/kg oral

Q: For Nc1c2c(nc3sc4c(c13)CCC4)CCCC2 [BN-14, 2,3,6,7,8,9-Hexahydro-1H-cyclopenta[4,5]thieno[2,3-b]quinolin-10-amine], which “% Increase in glucose, 120 min” value is on record?
A: 32.21%

Same assay, conditions: 120 min after starch; test compounds 100 mg/kg, Acarbose 10 mg/kg oral; in mg/dL (unit assumed)

Q: With Nc1c2c(nc3sc4c(c13)CCC4)CCCC2 [BN-14, 2,3,6,7,8,9-Hexahydro-1H-cyclopenta[4,5]thieno[2,3-b]quinolin-10-amine] as the compound, how does the “Blood glucose level, 120 min” value read?
A: 99.83

Same assay, conditions: basal, prior to dosing; test compounds 100 mg/kg, Acarbose 10 mg/kg oral; starch 2 gm/kg; in mg/dL (unit assumed)

Q: With Nc1c2c(nc3sc4c(c13)CCC4)CCCC2 [BN-14, 2,3,6,7,8,9-Hexahydro-1H-cyclopenta[4,5]thieno[2,3-b]quinolin-10-amine] as the compound, how does the “Blood glucose level, 0 min” value read?
A: 75.5
